Reference: patent US8486962B2, “Antifungal agents” (F2G Ltd., priority 2005, dated 2013)
Converted amounts (≈) assume the structure as drawn.

What was measured:
Aspergillus flavus = experiment: MIC, YAG medium, Aspergillus flavus; type: cell-based; conditions: Aspergillus flavus; YAG medium; read-out: MIC A Flavus 01
Procedure, shortened: (§1)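 Doubling dilutions (50-0.05 mg/L) were tested against Candida in RPMI with 2% glucose and 0.135M MOPS, pH7.0, at 1-2×10^3 cfu/ml for 24-48 hrs, 35° C; MIC is >80% inhibition at OD485. Aspergillus in YAG medium at 1-2×10^4 cfu/ml for 24 hrs was scored at >70% inhibition; low MICs were retested over 0.5-0.0005 mg/L.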

Aspergillus niger = experiment: MIC, YAG medium, Aspergillus niger; type: cell-based; conditions: Aspergillus niger; YAG medium; read-out: MIC A Niger 1
Procedure, shortened: as §1

Aspergillus terreus = experiment: MIC, YAG medium, Aspergillus terreus; type: cell-based; conditions: Aspergillus terreus; YAG medium; read-out: MIC A Terreus 4
Procedure, shortened: as §1

A Terreus 49 = experiment: MIC, YAG medium, A Terreus 49; type: cell-based, Aspergillus terreus; conditions: Aspergillus terreus; YAG medium; read-out: MIC A Terreus 49
Procedure, shortened: as §1

[1] = system: Aspergillus fumigatus AF293; experiment: MIC, YAG medium, Aspergillus fumigatus AF293; type: cell-based; conditions: Aspergillus fumigatus, AF293; YAG medium; read-out: MIC A Fum. 293
Procedure, shortened: as §1

[2] = system: Aspergillus fumigatus AF210; experiment: MIC, YAG medium, Aspergillus fumigatus AF210; type: cell-based; conditions: Aspergillus fumigatus, AF210; YAG medium; read-out: MIC A Fum. 210
Procedure, shortened: as §1

Compound | MIC (Aspergillus flavus) [µg/mL] | MIC (Aspergillus niger) [µg/mL] | MIC (Aspergillus terreus) [µg/mL] | MIC (A Terreus 49) [µg/mL] | MIC [1] [µg/mL] | MIC [2] [µg/mL]
O=C(Nc1ccc(-c2ncco2)cc1)C(=O)c1c(-c2ccccc2)cc2ccccn12 [Example 268, N-(4-Oxazol-2-yl-phenyl)-2-oxo-2-(2-phenyl-indolizin-3-yl)-acetamide] | 0.03 (≈ 0.0736 µM) | 0.015 (≈ 0.0368 µM) | 0.015 (≈ 0.0368 µM) | 0.015 (≈ 0.0368 µM) | 0.1 (≈ 0.245 µM) | 0.06 (≈ 0.147 µM)
COc1ccccc1-c1cc2ccccn2c1C(=O)C(=O)Nc1ccc(F)cc1F [Example 269, N-(2,4-Difluoro-phenyl)-2-[2-(2-methoxy-phenyl)-indolizin-3-yl]-2-oxo-acetamide] | 0.2 (≈ 0.492 µM) | 0.1 (≈ 0.246 µM) | 0.2 (≈ 0.492 µM) | 0.2 (≈ 0.492 µM) | 1.6 (≈ 3.94 µM) | 1.6 (≈ 3.94 µM)
Cc1cc(NC(=O)C(=O)c2c(-c3ccccc3)cc3ccccn23)ccc1N(C)C [Example 273, N-(4-Dimethylamino-3-methyl-phenyl)-2-oxo-2-(2-phenyl-indolizin-3-yl)-acetamide] | 0.004 (≈ 0.0101 µM) | 0.12 (≈ 0.302 µM) | 0.004 (≈ 0.0101 µM) | 0.002 (≈ 0.00503 µM) | 0.062 (≈ 0.156 µM) | 0.031 (≈ 0.078 µM)
O=C(Nc1ccc(Nc2ncccn2)cc1)C(=O)c1c(-c2ccccc2)cc2ccccn12 [Example 276, 2-Oxo-2-(2-phenyl-indolizin-3-yl)-N-[4-(pyrimidin-2-ylamino)-phenyl]-acetamide] | 0.05 (≈ 0.115 µM) | 0.05 (≈ 0.115 µM) | 0.05 (≈ 0.115 µM) | 0.015 (≈ 0.0346 µM) | 0.1 (≈ 0.231 µM) | 0.2 (≈ 0.461 µM)
O=C(Nc1ccc(F)cc1F)C(=O)c1c(-c2ccccc2Cl)cc2ccccn12 [Example 277, 2-[2-(2-Chloro-phenyl)-indolizin-3-yl]-N-(2,4-difluoro-phenyl)-2-oxo-acetamide] | 0.03 (≈ 0.073 µM) | 0.03 (≈ 0.073 µM) | 0.015 (≈ 0.0365 µM) | 0.2 (≈ 0.487 µM) | 0.4 (≈ 0.974 µM) | 0.05 (≈ 0.122 µM)
CN(C)Cc1ccc(NC(=O)C(=O)c2c(-c3ccccc3)cc3ccccn23)cc1 [Example 278, N-(4-Dimethylaminomethyl-phenyl)-2-oxo-2-(2-phenyl-indolizin-3-yl)-acetamide] | 6.25 (≈ 15.7 µM) | 25 (≈ 62.9 µM) | 6.25 (≈ 15.7 µM) | 12.5 (≈ 31.4 µM) | 25 (≈ 62.9 µM) | 12.5 (≈ 31.4 µM)
O=C(Nc1ccc(Cl)cc1)C(=O)c1c(-c2ccccc2)cc2ccccn12 [Example 281, N-(4-Chloro-phenyl)-2-oxo-2-(2-phenyl-indolizin-3-yl)-acetamide] | 0.031 (≈ 0.0827 µM) | 0.031 (≈ 0.0827 µM) | 0.031 (≈ 0.0827 µM) | 0.008 (≈ 0.0213 µM) | 0.25 (≈ 0.667 µM) | 0.12 (≈ 0.32 µM)
COc1ccc(NC(=O)C(=O)c2c(-c3ccccc3)cc3ccccn23)cc1C(C)=O [Example 282, N-(3-Acetyl-4-methoxy-phenyl)-2-oxo-2-(2-phenyl-indolizin-3-yl)-acetamide] | 0.008 (≈ 0.0194 µM) | 0.1 (≈ 0.242 µM) | 0.015 (≈ 0.0364 µM) | 0.004 (≈ 0.0097 µM) | 0.1 (≈ 0.242 µM) | 0.1 (≈ 0.242 µM)
Cc1ncccc1-c1cc2ccccn2c1C(=O)C(=O)Nc1ccc(OCC(F)(F)C(F)F)cc1 [Example 283, 2-[2-(2-Methyl-pyridin-3-yl)-indolizin-3-yl]-2-oxo-N-[4-(2,2,3,3-tetrafluoro-propoxy)-phenyl]-acetamide] | 0.015 (≈ 0.0309 µM) | 0.05 (≈ 0.103 µM) | 0.1 (≈ 0.206 µM) | 0.05 (≈ 0.103 µM) | 0.2 (≈ 0.412 µM) | 0.2 (≈ 0.412 µM)
CC(=O)Cc1ccc(NC(=O)C(=O)c2c(-c3ccccc3)cc3ccccn23)cc1 [Example 284, 2-Oxo-N-[4-(2-oxo-propyl)-phenyl]-2-(2-phenyl-indolizin-3-yl)-acetamide] | 0.05 (≈ 0.126 µM) | 0.05 (≈ 0.126 µM) | 0.05 (≈ 0.126 µM) | 0.015 (≈ 0.0378 µM) | 0.1 (≈ 0.252 µM) | 0.1 (≈ 0.252 µM)

More lines, now with the values ahead:

MIC (Aspergillus flavus) [µg/mL] | MIC (Aspergillus niger) [µg/mL] | MIC (Aspergillus terreus) [µg/mL] | MIC (A Terreus 49) [µg/mL] | MIC [1] [µg/mL] | MIC [2] [µg/mL] | Compound
0.05 (≈ 0.114 µM) | 0.05 (≈ 0.114 µM) | 0.05 (≈ 0.114 µM) | 0.03 (≈ 0.0684 µM) | 0.4 (≈ 0.912 µM) | 0.8 (≈ 1.82 µM) | O=C(Nc1ccc(Nc2nccs2)cc1)C(=O)c1c(-c2ccccc2)cc2ccccn12 [Example 285, 2-Oxo-2-(2-phenyl-indolizin-3-yl)-N-[4-(thiazol-2-ylamino)-phenyl]-acetamide]
0.015 (≈ 0.0309 µM) | 0.015 (≈ 0.0309 µM) | 0.1 (≈ 0.206 µM) | 0.015 (≈ 0.0309 µM) | 0.1 (≈ 0.206 µM) | 0.1 (≈ 0.206 µM) | Cc1ccccc1-c1cc2ccccn2c1C(=O)C(=O)Nc1ccc(OCC(F)(F)C(F)F)nc1 [Example 286, 2-Oxo-N-[6-(2,2,3,3-tetrafluoro-propoxy)-pyridin-3-yl]-2-(2-o-tolyl-indolizin-3-yl)-acetamide]
0.03 (≈ 0.0689 µM) | 0.015 (≈ 0.0344 µM) | 0.03 (≈ 0.0689 µM) | 0.008 (≈ 0.0184 µM) | 0.05 (≈ 0.115 µM) | 0.1 (≈ 0.23 µM) | Cc1noc(C)c1-c1ccc(NC(=O)C(=O)c2c(-c3ccccc3)cc3ccccn23)cc1 [Example 287, N-[4-(3,5-Dimethyl-isoxazol-4-yl)-phenyl]-2-oxo-2-(2-phenyl-indolizin-3-yl)-acetamide]
0.015 (≈ 0.0368 µM) | 0.1 (≈ 0.245 µM) | 0.008 (≈ 0.0196 µM) | 0.004 (≈ 0.00982 µM) | 0.1 (≈ 0.245 µM) | 0.2 (≈ 0.491 µM) | O=C(Nc1cccc(-c2ncco2)c1)C(=O)c1c(-c2ccccc2)cc2ccccn12 [Example 288, N-(3-Oxazol-2-yl-phenyl)-2-oxo-2-(2-phenyl-indolizin-3-yl)-acetamide]
0.004 (≈ 0.00908 µM) | 0.004 (≈ 0.00908 µM) | 0.008 (≈ 0.0182 µM) | 0.008 (≈ 0.0182 µM) | 0.05 (≈ 0.113 µM) | 0.05 (≈ 0.113 µM) | CCCN(CCC)c1ccc(NC(=O)C(=O)c2c(-c3ccccc3)cc3ccccn23)cn1 [Example 289, N-(6-Dipropylamino-pyridin-3-yl)-2-oxo-2-(2-phenyl-indolizin-3-yl)-acetamide]
0.05 (≈ 0.117 µM) | 0.05 (≈ 0.117 µM) | 0.03 (≈ 0.0705 µM) | 0.003 (≈ 0.00705 µM) | 0.1 (≈ 0.235 µM) | 0.2 (≈ 0.47 µM) | CCN(CC)c1ccc(NC(=O)C(=O)c2c(-c3ccccc3)cc3ccccn23)cc1C [Example 290, N-(4-Diethylamino-3-methyl-phenyl)-2-oxo-2-(2-phenyl-indolizin-3-yl)-acetamide]
0.03 (≈ 0.0736 µM) | 0.05 (≈ 0.123 µM) | 0.015 (≈ 0.0368 µM) | 0.015 (≈ 0.0368 µM) | 0.8 (≈ 1.96 µM) | 3.1 (≈ 7.61 µM) | O=C(Nc1ccc(-c2cnco2)cc1)C(=O)c1c(-c2ccccc2)cc2ccccn12 [Example 291, N-(4-Oxazol-5-yl-phenyl)-2-oxo-2-(2-phenyl-indolizin-3-yl)-acetamide]
0.03 (≈ 0.0666 µM) | 0.8 (≈ 1.78 µM) | 0.03 (≈ 0.0666 µM) | 0.015 (≈ 0.0333 µM) | 0.4 (≈ 0.888 µM) | 0.2 (≈ 0.444 µM) | CN(C)c1ccc(NC(=O)C(=O)c2c(-c3ccccc3)cc3ccccn23)cc1-c1ncco1 [Example 292, N-(4-Dimethylamino-3-oxazol-2-yl-phenyl)-2-oxo-2-(2-phenyl-indolizin-3-yl)-acetamide]
0.05 (≈ 0.118 µM) | 0.008 (≈ 0.0189 µM) | 0.015 (≈ 0.0354 µM) | 0.004 (≈ 0.00945 µM) | 0.1 (≈ 0.236 µM) | 0.4 (≈ 0.945 µM) | O=C(Nc1ccc(-c2nccs2)cc1)C(=O)c1c(-c2ccccc2)cc2ccccn12 [Example 293, 2-Oxo-2-(2-phenyl-indolizin-3-yl)-N-(4-thiazol-2-yl-phenyl)-acetamide]
25 (≈ 60.3 µM) | 50 (≈ 121 µM) | 50 (≈ 121 µM) | 25 (≈ 60.3 µM) | 25 (≈ 60.3 µM) | > 50 | O=C(O)COc1cccc(NC(=O)C(=O)c2c(-c3ccccc3)cc3ccccn23)c1 [Example 294, {3-[2-Oxo-2-(2-phenyl-indolizin-3-yl)-acetylamino]-phenoxy}-acetic acid]
